Broadly, the pEC50 is the negative decadic logarithm of the EC50, by convention in mol/L.

Structures are written as SMILES. pEC50: −log10 of the molar value.

This passage reports EC50 and activation results from patent US11466047B2, “Cyclic di-nucleotide compounds as sting agonists” (Merck Sharp & Dohme Corp., priority 2017, dated 2022).

In assay [1] the target is full-length HAQ STING (Homo sapiens (Human), UniProt Q86WV6, G230A/H232R/R293Q/R71H). In words: 3H-cGAMP filtration binding assay (HAQ STING). The note with it: competition with tritiated cGAMP ligand, HAQ STING membrane. An excerpt:
The ability of compounds to bind STING is quantified by the ability to compete with tritiated cGAMP ligand for human STING receptor membrane using a radioactive filter-binding assay. The binding assay employs STING receptor obtained from Hi-Five cell membranes overexpressing full-length HAQ STING prepared in-house and tritiated cGAMP ligand also purified in-house.
The ability of compounds to bind STING is quantified by their ability to compete with tritiated cGAMP ligand for human STING receptor membrane using a radioactive filter-binding assay. The binding assay employs STING receptor obtained from Trichoplusia ni cell membranes (T.ni; Expression Systems, cat #94-002F, www.expressionsystems.com) overexpressing full-length HAQ STING and tritiated cGAMP ligand.
The basic HAQ STING filtration assay protocol is as follows:
The compounds were serially titrated by the Hamilton STARPlus CORE in a 96-well plate (Greiner, #651201) using a 1:3 ten-point dose response format. After compound preparation, a 2.2 ug/ml working concentration of STING membrane (SEQ. ID. No. 1) was prepared by diluting concentrated membrane into assay buffer (lx PBS; Invitrogen #SH30028.02) and douncing 7× using a manual tissue homogenizer (Wheaton, #357546). 148 uL of prepared membrane was then manually added to each well of a 96-well deep-well polypropylene plate (Fisher Scientific, #12-566-121). Following membrane addition, 2 uL of either titrated test compound, DMSO control (Sigma #276855), or cold cGAMP control was added to the appropriate wells using a BIOMEK FX. Compound and membrane then preincubated for 60 min at RT to allow compound binding to equilibrate. Following equilibration, 8 nM of [^3H]c-GAMP ligand was prepared by diluting into assay buffer, and 50 uL of this working stock was then manually added to each well of the assay plate. Plates were then incubated at RT for 60 min, and the contents of each assay plate were then filtered through a 96-well GF/B filter plate (PerkinElmer, #6005250) using a TOMTEC MACH III Cell Harvester equipped with 20 mM HEPES buffer (Fisher Scientific, #BP299500). The filter plates were then dried at 55° C. for 30 min using a pressurized oven before 30 uL of ULTIMA GOLD F scintillate was added to each well. Tritium levels for each reaction well were then measured using a PerkinElmer TopCount plate reader.
(§1) After normalization to controls, the percent activity for each compound concentration was calculated by measuring the amount of remaining radioactivity. The plot of percent activity versus the log of compound concentration was fit with a 4-parameter dose response equation to calculate EC50 values.

Assay [2] addresses full-length WT STING (Homo sapiens (Human), UniProt Q86WV6, H232R). In words: 3H-cGAMP filtration binding assay (WT STING). The note with it: competition with tritiated cGAMP ligand, WT STING membrane; read-out: EC50. Here is the method: The ability of compounds to bind STING is quantified by their ability to compete with tritiated cGAMP ligand for human STING receptor membrane using a radioactive filter-binding assay. The binding assay employs STING receptor obtained from Trichoplusia ni cell membranes (T.ni; Expression Systems, cat #94-002F, overexpressing full-length WT STING and tritiated cGAMP ligand.
The basic WT STING filtration assay protocol is as follows:
16 nM of [^3H] c-GAMP ligand was prepared by diluting into assay buffer, and 50 uL of this working stock was manually added to each well of the assay plate. After ligand addition, 2 uL of either titrated test compound, DMSO control (Sigma #276855), or cold cGAMP control was added to the appropriate wells using a BIOMEK FX. The serially titrated compound was prepared on a Hamilton STARPlus CORE in a 96-well plate (Greiner, #651201) using a 1:3 ten-point dose response format. Following compound addition, a 2.2 ug/ml working concentration of STING membrane (SEQ. ID. No. 3) was prepared by diluting concentrated membrane into assay buffer (1×PBS; Invitrogen #SH30028.02) and douncing 7× using a manual tissue homogenizer (Wheaton, #357546). 148 uL of this prepared membrane was then manually added to each well of a 96-well deep-well polypropylene plate (Fisher Scientific, #12-566-121). Compound, ligand, and membrane then incubated for 60 min at RT before the contents of each assay plate were filtered through a 96-well GF/B filter plate (PerkinElmer, #6005250) using a TOMTEC MACH III Cell Harvester equipped with 20 mM HEPES buffer (Fisher Scientific, #BP299500). The filter plates were then dried at 55° C. for 30 min using a pressurized VWR oven before 30 uL of ULTIMA GOLD F scintillate was added to each well. Tritium levels for each reaction well were then measured using a PerkinElmer TopCount plate reader.
as §1

For assay [3], the system named is THP1 cells. In words: IFN-β secretion in THP1 cell culture (5 h). Conditions: Homo sapiens, THP-1, 5 h, 30 μM compound, relative to 2′3′-cGAMP at 30 μM, read-out: % Effect at 30 μM relative to 2′3′-cGAMP. The assay is classed as cell-based, human. The procedure:
The ability of compounds to stimulate the secretion of interferon-beta from THP1 cells was measured using a human IFN-β AlphaLISA kit (Perkin Elmer, Cat. No. AL265F). The basic protocol is as follows:
A Labcyte Echo 550 acoustic dispenser was used to transfer 120 nL of compound dissolved in DMSO into the wells of an empty, sterile 384-well microplate, (Corning, Cat. No. 3712). THP1 cells (American Type Culture Collection, Cat. No. TIB202) previously frozen in Recovery Medium (Life Technologies, Cat. No. 12648-010) were thawed and immediately diluted 10-fold into 37° C. assay medium (RPMI 1640+L-Glutamine & phenol red, Life Technologies, Cat. No. 11875-085; 0.5% heat inactivated fetal bovine serum, Sigma Aldrich, Cat. No. F4135; 1 mM Sodium Pyruvate, Life Technologies, Cat. No. 11360-070; lx non-essential amino acids; Life Technologies, Cat. No. 11140-050). The cell viability and count was ascertained using a Beckman Coulter V-Cell XR cell counter. The cell suspension was centrifuged at 200×g for 5 min at RT. Cells were resuspended to a density of 0.8×10^6/mL in 37° C. assay medium. Subsequent liquid transfers were performed using either a Matrix electronic multichannel pipette or an Agilent Bravo Automated Liquid Handling Platform.
The assay was started by dispensing 40 μL of the previously prepared cell suspension into the wells of the plate containing compounds. After 5 h incubation at 37° C., 5% CO2 in a humidified atmosphere, the plate of cells and compounds was centrifuged at 200×g for 5 min at RT. From each well, 5 μL of supernatant was transferred into corresponding wells of a white 384-well plate (Perkin Elmer, Cat. No. 6005620). To these supernatant-containing wells was added 10 μL of 5× Anti-Analyte Acceptor beads (50 μg/mL of AlphaLISA HiBlock Buffer) and incubated for 30 min at RT while shaking on an orbital plate shaker. To each well was added 10 μL of 5× Biotinylated Antibody Anti-analyte (5 nM in AlphaLISA HiBlock Buffer) and incubated on an orbital plate shaker for 60 min at RT or overnight at 4° C. To each well was added 25 μL of 2×SA-Donor beads (80 μg/mL in AlphaLISA HiBlock Buffer) and incubated for 30-45 min at RT in the dark while shaking on an orbital plate shaker. The plate was then read on a Perkin Elmer Envision (λex=680 nm, λem=570 nm). The percent effect of the AlphaLISA signal at each compound concentration was calculated based on 30 uM cGAMP positive controls and 0.3% DMSO negative controls. The plot of percent effect versus the log of compound concentration was fit with a 4-parameter concentration response equation to calculate EC50 values. The test compounds were tested at concentrations 30000, 10000, 3333, 1111, 370.4, 123.4, 41.2, 13.7, 4.6, and 1.5 nM with 0.3% residual DMSO. The control compound, cGAMP was tested at concentrations 100000, 33333, 11111, 3704, 1235, 412, 137, 46, and 15 nM with 0.3% residual DMSO.
Compounds of the disclosure were evaluated for IFN-β secretion in THP1 cell culture as described above. The following table tabulates the biological data for these compounds as percent activation relative to 2′3′-cGAMP at the 30 μM concentration.

Chain of full-length WT STING (Q86WV6 whole entry, looked up, stated change not applied): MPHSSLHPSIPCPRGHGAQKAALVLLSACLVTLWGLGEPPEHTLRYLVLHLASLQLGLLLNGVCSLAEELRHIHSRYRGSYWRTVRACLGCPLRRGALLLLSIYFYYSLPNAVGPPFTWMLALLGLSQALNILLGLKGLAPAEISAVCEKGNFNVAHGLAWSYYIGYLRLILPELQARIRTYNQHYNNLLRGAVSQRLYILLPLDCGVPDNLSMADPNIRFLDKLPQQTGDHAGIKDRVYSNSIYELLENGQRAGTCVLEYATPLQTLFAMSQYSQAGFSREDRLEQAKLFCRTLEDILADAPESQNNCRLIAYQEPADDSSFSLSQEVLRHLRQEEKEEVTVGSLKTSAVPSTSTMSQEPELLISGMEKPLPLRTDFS
Chain of full-length HAQ STING (Q86WV6 whole entry, looked up, stated change not applied): as above

Take `Nc1nc2c(ncn2[C@@H]2O[C@@H]3COP(=S)(S)O[C@H]4[C@H]5OC[C@]4(COP(O)(=S)O[C@@H]2[C@H]3F)O[C@H]5n2cnc3c(N)ncnc32)c(=O)[nH]1` (stereo partly drawn) [Example 9, 2-amino-9-[(5R,7R,8S,12aR,14R,15R, 15aS,18S)-14-(6-amino-9H-purin-9-yl)-18-fluoro-10-hydroxy-2-sulfanyl-2,10-disulfidohexahydro-14H-15,12a-(epoxymethano)-5,8-methanofuro[3,2-1][1,3,6,9,11,2,10]pentaoxadiphosphacyclotetradecin-7(12H)-yl]-1,9-dihydro-6H-purin-6-one]: the pEC50 in assay [1] is 6.46; in assay [2], 5.36. The activation at 30 µM in assay [3] came to 26%.

With `Nc1nc2c(ncn2[C@@H]2S[C@@H]3COP(=S)(S)O[C@H]4[C@H](F)[C@H](n5cnc6c(N)ncnc65)O[C@@H]4COP(O)(=S)O[C@@H]2[C@@H]3O)c(=O)[nH]1` (stereo partly drawn) [Example 16, 2-amino-9-[(5R,7R,8R,12aR,14R,15S,15aR,16S)-14-(6-amino-9H-purin-9-yl)-15-fluoro-10,16-dihydroxy-2-sulfanyl-2,10-disulfidooctahydro-12H-5,8-methanofuro[3,2-l][1,3,9,11,6,2,10]tetraoxathiadiphosphacyclotetradecin-7-yl]-1,9-dihydro-6H-purin-6-one], the figures for the pEC50 in assay [1] and in assay [2] were 8.30 and 7.74, respectively. Also, the activation at 30 µM in assay [3] is 107%.

Take `Nc1nc2c(ncn2[C@@H]2S[C@@H]3COP(=S)(S)O[C@H]4[C@H](F)[C@H](n5cnc6c(N)ncnc65)O[C@@H]4COP(=O)(O)O[C@@H]2[C@@H]3O)c(=O)[nH]1` (stereo partly drawn) [Example 20, 2-amino-9-[(5R,7R,8R,12aR,14R,15S,15aR,16S)-14-(6-amino-9H-purin-9-yl)-15-fluoro-10,16-dihydroxy-10-oxido-2-sulfanyl-2-sulfidooctahydro-12H-5,8-methanofuro[3,2-l][1,3,9,11,6,2,10]tetraoxathiadiphosphacyclotetradecin-7-yl]-1,9-dihydro-6H-purin-6-one]: the pEC50 in assay [1] was 9.00; in assay [2], 8.52. Further, the activation at 30 µM in assay [3] stood at 137%.

As for `Nc1nc2c(ncn2[C@@H]2S[C@@H]3COP(=S)(S)O[C@H]4[C@H]5OC[C@]4(COP(=O)(O)O[C@@H]2[C@@H]3O)O[C@H]5n2cnc3c(N)ncnc32)c(=O)[nH]1` (stereo partly drawn) [Example 21, 2-amino-9-[(5R,7R,8R,12aR,14R,15R, 15aS,18S)-14-(6-amino-9H-purin-9-yl)-10,18-dihydroxy-10-oxido-2-sulfanyl-2-sulfidohexahydro-14H-15,12a-(epoxymethano)-5,8-methanofuro[3,2-1][1,3,9,11,6,2,10]tetraoxathiadiphosphacyclotetradecin-7(12H)-yl]-1,9-dihydro-6H-purin-6-one], the pEC50 in assay [1] was 6.66; in assay [2], 5.81. Besides, the activation at 30 µM in assay [3] amounted to 45%.
